Reference: ChEMBL document CHEMBL3526033, “Identification of human liver cytochrome P450 enzymes involved in the metabolism of SCH 530348 (Vorapaxar), a potent oral thrombin protease-activated receptor 1 antagonist” (Drug Metab Dispos, 2011)

Experiments:
[1] = molecular target: T1, Cytochrome P450 1A2 (Homo sapiens, UniProt P05177); assay: Drug level assessed as human recombinant CYP1A2-mediated drug metabolism treated with 25 uM [14C]vorapaxar after 120 mins by LC-MS/MS analysis in presence of NADPH; assay type: ADME; settings: recombinant enzyme, 2 h
T1 sequence (P05177 whole entry): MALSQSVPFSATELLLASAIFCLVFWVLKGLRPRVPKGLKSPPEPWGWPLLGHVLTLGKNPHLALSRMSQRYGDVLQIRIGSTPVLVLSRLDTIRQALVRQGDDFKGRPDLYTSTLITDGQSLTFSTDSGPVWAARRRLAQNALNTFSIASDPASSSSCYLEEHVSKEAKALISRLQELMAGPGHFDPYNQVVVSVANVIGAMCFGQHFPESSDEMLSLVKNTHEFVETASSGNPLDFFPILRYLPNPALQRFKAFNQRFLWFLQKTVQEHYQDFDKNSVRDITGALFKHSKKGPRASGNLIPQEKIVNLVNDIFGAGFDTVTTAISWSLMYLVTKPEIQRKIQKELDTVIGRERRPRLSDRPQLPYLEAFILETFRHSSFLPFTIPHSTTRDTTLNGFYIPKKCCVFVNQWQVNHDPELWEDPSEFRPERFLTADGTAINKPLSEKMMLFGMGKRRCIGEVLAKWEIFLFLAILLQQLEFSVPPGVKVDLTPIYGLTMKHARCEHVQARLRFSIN

[2] = molecular target: T2, Cytochrome P450 3A5 (Homo sapiens, UniProt P20815); assay: Drug level assessed as human recombinant CYP3A5-mediated drug metabolism treated with 25 uM [14C]vorapaxar after 120 mins by LC-MS/MS analysis in presence of NADPH; assay type: ADME; settings: recombinant enzyme, 2 h
[3] = test system: Liver microsome; assay: Drug level in human liver microsomes treated with 10 to 25 uM vorapaxar after 120 mins by LC-MS/MS analysis in presence of sulfaphenazole; assay type: ADME; settings: 2 h
[4] = test system: Liver microsome; assay: Drug level in human liver microsomes treated with 10 to 25 uM vorapaxar after 120 mins by LC-MS/MS analysis in presence of CYP3A4-specific inhibitory antibody; assay type: ADME; settings: 2 h
[5] = Drug metabolism in human liver S9 fraction treated with 10 uM [14C]vorapaxar after 120 mins by LC-MS/MS analysis; assay type: ADME, subcellular; settings: s9, 2 h
[6] = molecular target: T3, Cytochrome P450 1A1 (Homo sapiens, UniProt P04798); assay: Activity of human recombinant CYP1A1 assessed as enzyme-mediated drug metabolism treated with 10 uM [14C]vorapaxar after 120 mins by LC-MS/MS analysis in presence of NADPH; assay type: ADME; settings: 2 h
T3 sequence (P04798 whole entry): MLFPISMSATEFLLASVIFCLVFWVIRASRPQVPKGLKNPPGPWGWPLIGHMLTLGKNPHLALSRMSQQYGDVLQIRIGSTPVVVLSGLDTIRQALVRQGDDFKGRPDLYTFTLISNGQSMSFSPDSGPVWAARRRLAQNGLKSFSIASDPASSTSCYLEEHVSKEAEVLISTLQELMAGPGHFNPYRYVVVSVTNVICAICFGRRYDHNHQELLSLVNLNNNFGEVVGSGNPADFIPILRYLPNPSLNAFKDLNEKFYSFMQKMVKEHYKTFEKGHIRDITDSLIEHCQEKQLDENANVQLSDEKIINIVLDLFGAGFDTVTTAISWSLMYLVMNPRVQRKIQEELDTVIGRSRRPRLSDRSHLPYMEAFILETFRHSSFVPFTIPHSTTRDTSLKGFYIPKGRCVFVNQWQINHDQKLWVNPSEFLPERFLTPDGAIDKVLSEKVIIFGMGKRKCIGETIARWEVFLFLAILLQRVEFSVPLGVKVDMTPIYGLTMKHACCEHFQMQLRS

[7] = test system: Liver microsome; assay: Drug level in human liver microsomes treated with 10 to 25 uM vorapaxar after 120 mins by LC-MS/MS analysis in presence of omeprazole; assay type: ADME; settings: 2 h
[8] = test system: Liver microsome; assay: Drug metabolism in human liver microsomes treated with 10 uM [14C]vorapaxar after 120 mins by LC-MS/MS analysis; assay type: ADME; settings: 2 h
[9] = molecular target: T4, Cytochrome P450 2C19 (Homo sapiens, UniProt P33261); assay: Activity of human recombinant CYP2C19 assessed as enzyme-mediated drug metabolism treated with 10 uM [14C]vorapaxar after 120 mins by LC-MS/MS analysis in presence of NADPH; assay type: ADME; settings: 2 h
[10] = molecular target: T5, Cytochrome P450 2J2 (Homo sapiens, UniProt P51589); assay: Drug level in human liver microsomes assessed as CYP2J2-mediated drug metabolism at 25 uM after 120 mins by LC-MS/MS analysis; assay type: ADME; settings: 2 h
T5 sequence (P51589 whole entry): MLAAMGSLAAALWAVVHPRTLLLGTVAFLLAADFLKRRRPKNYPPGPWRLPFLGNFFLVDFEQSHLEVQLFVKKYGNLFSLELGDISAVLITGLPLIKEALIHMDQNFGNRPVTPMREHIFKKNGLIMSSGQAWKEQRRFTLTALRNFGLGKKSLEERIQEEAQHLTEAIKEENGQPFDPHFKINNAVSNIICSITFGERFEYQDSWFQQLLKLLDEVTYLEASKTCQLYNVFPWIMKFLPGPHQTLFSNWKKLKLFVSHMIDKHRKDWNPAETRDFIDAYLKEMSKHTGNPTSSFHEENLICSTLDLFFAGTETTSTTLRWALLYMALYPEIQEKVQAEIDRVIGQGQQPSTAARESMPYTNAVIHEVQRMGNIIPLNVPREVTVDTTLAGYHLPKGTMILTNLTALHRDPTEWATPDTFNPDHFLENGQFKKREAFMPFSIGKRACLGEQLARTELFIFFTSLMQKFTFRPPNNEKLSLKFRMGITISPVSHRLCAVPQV

[11] = molecular target: T4, Cytochrome P450 2C19; assay: Drug level assessed as human recombinant CYP2C19-mediated drug metabolism treated with 25 uM [14C]vorapaxar after 120 mins by LC-MS/MS analysis in presence of NADPH; assay type: ADME; settings: recombinant enzyme, 2 h
[12] = molecular target: Cytochrome P450 2C9 (Homo sapiens, UniProt P11712); assay: Activity of human recombinant CYP2C9 assessed as enzyme-mediated drug metabolism treated with 10 uM [14C]vorapaxar after 120 mins by LC-MS/MS analysis in presence of NADPH; assay type: ADME; settings: 2 h
[13] = molecular target: T2, Cytochrome P450 3A5; assay: Activity of human recombinant CYP3A5 assessed as enzyme-mediated drug metabolism treated with 10 uM [14C]vorapaxar after 120 mins by LC-MS/MS analysis in presence of NADPH; assay type: ADME; settings: 2 h
[14] = molecular target: T1, Cytochrome P450 1A2; assay: Activity of human recombinant CYP1A2 assessed as enzyme-mediated drug metabolism treated with 10 uM [14C]vorapaxar after 120 mins by LC-MS/MS analysis in presence of NADPH; assay type: ADME; settings: 2 h
[15] = molecular target: T6, Cytochrome P450 3A4 (Homo sapiens, UniProt P08684); assay: Drug level in human liver microsomes assessed as CYP3A4-mediated drug metabolism at 25 uM after 120 mins by LC-MS/MS analysis; assay type: ADME; settings: 2 h
[16] = molecular target: T6, Cytochrome P450 3A4; assay: Activity of human recombinant CYP3A4 assessed as enzyme-mediated drug metabolism treated with 10 uM [14C]vorapaxar after 120 mins by LC-MS/MS analysis in presence of NADPH; assay type: ADME; settings: 2 h
[17] = test system: Liver microsome; assay: Drug level in human liver microsomes treated with 10 to 25 uM vorapaxar after 120 mins by LC-MS/MS analysis in presence of alpha-napthoflavone; assay type: ADME; settings: 2 h
[18] = test system: Liver microsome; assay: Drug level in human liver microsomes treated with 10 to 25 uM vorapaxar after 120 mins by LC-MS/MS analysis in presence of quinidine; assay type: ADME; settings: 2 h
[19] = molecular target: T7, Cytochrome P450 4F3 (Homo sapiens, UniProt Q08477); assay: Drug level assessed as human recombinant CYP4F3A-mediated drug metabolism treated with 25 uM [14C]vorapaxar after 120 mins by LC-MS/MS analysis in presence of NADPH; assay type: ADME; settings: recombinant enzyme, 2 h
T7 sequence (Q08477 whole entry): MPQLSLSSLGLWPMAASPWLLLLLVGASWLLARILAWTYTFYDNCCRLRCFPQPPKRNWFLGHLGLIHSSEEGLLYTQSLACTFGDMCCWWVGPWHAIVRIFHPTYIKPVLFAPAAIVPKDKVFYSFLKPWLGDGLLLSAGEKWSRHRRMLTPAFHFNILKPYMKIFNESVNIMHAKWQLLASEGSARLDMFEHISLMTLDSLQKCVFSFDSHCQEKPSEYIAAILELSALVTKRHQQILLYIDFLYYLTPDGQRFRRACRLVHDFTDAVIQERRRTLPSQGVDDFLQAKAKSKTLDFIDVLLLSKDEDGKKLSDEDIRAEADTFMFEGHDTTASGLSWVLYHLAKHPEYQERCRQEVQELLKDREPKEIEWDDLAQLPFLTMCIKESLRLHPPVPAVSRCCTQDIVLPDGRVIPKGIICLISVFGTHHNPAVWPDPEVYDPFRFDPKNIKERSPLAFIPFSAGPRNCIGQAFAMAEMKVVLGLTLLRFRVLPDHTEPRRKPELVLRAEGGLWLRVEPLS

[20] = molecular target: T3, Cytochrome P450 1A1; assay: Drug level assessed as human recombinant CYP1A1-mediated drug metabolism treated with 25 uM [14C]vorapaxar after 120 mins by LC-MS/MS analysis in presence of NADPH; assay type: ADME; settings: recombinant enzyme, 2 h

T6 sequence (P08684 whole entry): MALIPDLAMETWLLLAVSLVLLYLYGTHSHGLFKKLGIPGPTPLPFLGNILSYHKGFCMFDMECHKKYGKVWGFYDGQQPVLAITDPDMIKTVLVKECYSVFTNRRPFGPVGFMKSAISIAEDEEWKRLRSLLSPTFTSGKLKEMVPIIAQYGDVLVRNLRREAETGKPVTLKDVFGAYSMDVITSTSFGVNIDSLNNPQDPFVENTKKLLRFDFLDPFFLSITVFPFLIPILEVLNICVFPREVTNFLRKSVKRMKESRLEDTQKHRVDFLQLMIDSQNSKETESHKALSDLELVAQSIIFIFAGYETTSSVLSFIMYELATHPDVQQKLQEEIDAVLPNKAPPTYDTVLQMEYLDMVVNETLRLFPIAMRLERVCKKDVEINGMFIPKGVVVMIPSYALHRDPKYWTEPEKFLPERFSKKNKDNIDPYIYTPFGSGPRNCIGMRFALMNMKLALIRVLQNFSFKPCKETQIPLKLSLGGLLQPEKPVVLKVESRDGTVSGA
T4 sequence (P33261 whole entry): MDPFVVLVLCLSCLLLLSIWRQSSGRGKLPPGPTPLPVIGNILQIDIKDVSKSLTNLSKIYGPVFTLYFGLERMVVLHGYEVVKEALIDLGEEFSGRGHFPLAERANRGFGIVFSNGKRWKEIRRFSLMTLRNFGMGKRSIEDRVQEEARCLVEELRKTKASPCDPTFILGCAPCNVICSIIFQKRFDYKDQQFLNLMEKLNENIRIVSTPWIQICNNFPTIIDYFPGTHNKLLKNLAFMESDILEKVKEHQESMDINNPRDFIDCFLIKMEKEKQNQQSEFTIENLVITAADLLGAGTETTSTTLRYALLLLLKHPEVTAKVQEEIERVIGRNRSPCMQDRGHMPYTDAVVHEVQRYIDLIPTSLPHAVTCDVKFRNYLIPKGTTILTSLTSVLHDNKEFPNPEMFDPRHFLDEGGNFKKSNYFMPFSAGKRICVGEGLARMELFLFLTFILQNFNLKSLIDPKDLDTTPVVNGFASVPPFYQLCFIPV
T2 sequence (P20815 whole entry): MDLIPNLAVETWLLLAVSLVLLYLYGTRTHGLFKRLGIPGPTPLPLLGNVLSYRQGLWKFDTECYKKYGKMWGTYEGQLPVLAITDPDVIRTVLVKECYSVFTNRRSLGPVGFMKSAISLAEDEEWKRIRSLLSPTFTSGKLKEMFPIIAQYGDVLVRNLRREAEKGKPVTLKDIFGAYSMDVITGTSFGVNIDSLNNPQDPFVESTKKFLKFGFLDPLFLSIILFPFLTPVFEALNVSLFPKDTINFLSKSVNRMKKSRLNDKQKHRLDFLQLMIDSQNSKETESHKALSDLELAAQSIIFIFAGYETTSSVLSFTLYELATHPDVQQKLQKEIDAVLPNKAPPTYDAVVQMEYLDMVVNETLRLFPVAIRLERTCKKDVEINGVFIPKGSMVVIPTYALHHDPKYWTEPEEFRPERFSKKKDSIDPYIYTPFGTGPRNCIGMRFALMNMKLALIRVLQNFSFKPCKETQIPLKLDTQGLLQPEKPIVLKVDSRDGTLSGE
Cytochrome P450 2C9, sequence (P11712 whole entry): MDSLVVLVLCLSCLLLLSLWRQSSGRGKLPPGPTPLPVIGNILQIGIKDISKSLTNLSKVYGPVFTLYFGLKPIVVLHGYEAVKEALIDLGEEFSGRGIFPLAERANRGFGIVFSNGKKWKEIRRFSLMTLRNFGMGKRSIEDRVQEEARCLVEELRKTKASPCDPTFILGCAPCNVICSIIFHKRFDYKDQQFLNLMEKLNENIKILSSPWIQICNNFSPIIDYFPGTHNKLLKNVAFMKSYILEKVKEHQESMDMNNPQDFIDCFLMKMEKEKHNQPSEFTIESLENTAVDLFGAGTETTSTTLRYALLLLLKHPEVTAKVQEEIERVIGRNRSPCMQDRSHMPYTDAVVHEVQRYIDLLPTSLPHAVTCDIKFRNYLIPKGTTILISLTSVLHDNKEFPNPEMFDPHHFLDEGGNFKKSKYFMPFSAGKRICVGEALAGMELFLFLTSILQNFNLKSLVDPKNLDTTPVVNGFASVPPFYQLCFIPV

Compound: C[C@H]1OC(=O)[C@@H]2C[C@@H]3C[C@H](N)CC[C@H]3[C@H](/C=C/c3ccc(-c4cccc(F)c4)cn3)[C@H]12
- Drug metabolism [1]: metabolite_detected
- Drug metabolism [2]: metabolite_detected
- Drug metabolism [3]: metabolite_detected
- Drug metabolism [4]: metabolite_detected
- Compound recovery [5]: 3.42%
- Compound recovery [6]: 1.96%
- Drug metabolism [7]: metabolite_detected
- Compound recovery [8]: 5.12%
- Compound recovery [9]: 5.91%
- Drug metabolism [10]: metabolite_detected
- Drug metabolism [11]: metabolite_detected
- Compound recovery [12]: below level of quantification
- Compound recovery [13]: 0.15%
- Compound recovery [14]: 0.23%
- Drug metabolism [15]: metabolite_detected
- Compound recovery [16]: 22.1%
- Drug metabolism [17]: metabolite_detected
- Drug metabolism [18]: metabolite_detected
- Drug metabolism [19]: metabolite_detected
- Drug metabolism [20]: metabolite_detected
